Measured values taken from US20230129438A1, “IMMUNOMODULATING IMINE-OXAZOLINE AZALIDES” (Zoetis Services LLC, priority 2020, published 2023).

Assays:
[1] = system: TNF-α; assay: Bovine whole blood assay, LPS-induced TNF-α; assay type: cell-based; settings: LPS 1 μg/mL
Procedure: (§1) (protected from light) for 30 minutes.

[2] = system: IL-1β; assay: Bovine whole blood assay, IL-1β; assay type: cell-based; settings: drug concentration giving overstimulation of IL-1β over LPS (cellular toxicity signal)
Procedure: as §1

| Compound | IC50 [1] [µM] | IL-Iβ OS of LPS [2] [µM] |
| --- | --- | --- |
| CCNC[C@]1(O)[C@H](C)O[C@@H](O[C@H]2[C@H](C)[C@@H](O[C@@H]3O[C@H](C)C[C@H]4[C@H]3OC(=Nc3ccccc3)N4C)[C@](C)(O)C[C@@H](C)CN[C@H](C)[C@@H](O)[C@](C)(O)[C@@H](CC)OC(=O)[C@@H]2C)C[C@@]1(C)OC (mixture of isomers) [Example A-3, (E/Z)-(2R,3S,4R,5R,8R,10R,11R,12S,13S,14R)-11-(((3aR,4S,6R,7aS)-1,6-dimethyl-2-(phenylimino)hexahydro-2H-pyrano[4,3-d]oxazol-4-yl)oxy)-2-ethyl-13-(((2R,4R,5S,6S)-5-((ethylamino)methyl)-5-hydroxy-4-methoxy-4,6-dimethyltetrahydro-2H-pyran-2-yl)oxy)-3,4,10-trihydroxy-3,5,8,10,12,14-hexamethyl-1-oxa-6-azacyclopentadecan-15-one] | 20 | 5 |
| CCNC[C@]1(O)[C@H](C)O[C@@H](O[C@H]2[C@H](C)[C@@H](O[C@@H]3O[C@H](C)C[C@H]4[C@H]3OC(=Nc3ccc(OC)cc3)N4C)[C@](C)(O)C[C@@H](C)CN[C@H](C)[C@@H](O)[C@](C)(O)[C@@H](CC)OC(=O)[C@@H]2C)C[C@@]1(C)OC (mixture of isomers) [Example A-12, (E/Z)-(2R,3S,4R,5R,8R,10R,11R,12S,13S,14R)-2-ethyl-13-(((2R,4R,5S,6S)-5-((ethylamino)methyl)-5-hydroxy-4-methoxy-4,6-dimethyltetrahydro-2H-pyran-2-yl)oxy)-3,4,10-trihydroxy-11-(((3aR,4S,6R,7aS)-2-((4-methoxyphenyl)imino)-1,6-dimethylhexahydro-2H-pyrano[4,3-d]oxazol-4-yl)oxy)-3,5,8,10,12,14-hexamethyl-1-oxa-6-azacyclopentadecan-15-one] | 15 | 32 |
| CCCNC[C@]1(O)[C@H](C)O[C@@H](O[C@H]2[C@H](C)[C@@H](O[C@@H]3O[C@H](C)C[C@H]4[C@H]3OC(=Nc3ccc(OC)cc3)N4C)[C@](C)(O)C[C@@H](C)CN(C)[C@H](C)[C@@H](O)[C@](C)(O)[C@@H](CC)OC(=O)[C@@H]2C)C[C@@]1(C)OC (mixture of isomers) [Example A-30, (E/Z)-(2R,3S,4R,5R,8R,10R,11R,12S,13S,14R)-2-ethyl-3,4,10-trihydroxy-13-(((2R,4R,5S,6S)-5-hydroxy-4-methoxy-4,6-dimethyl-5-((propylamino)methyl)tetrahydro-2H-pyran-2-yl)oxy)-11-(((3aR,4S,6R,7aS)-2-((4-methoxyphenyl)imino)-1,6-dimethylhexahydro-2H-pyrano[4,3-d]oxazol-4-yl)oxy)-3,5,6,8,10,12,14-heptamethyl-1-oxa-6-azacyclopentadecan-15-one] | 10 | 16 |
| CCCNC[C@]1(O)[C@H](C)O[C@@H](O[C@H]2[C@H](C)[C@@H](O[C@@H]3O[C@H](C)C[C@H]4[C@H]3OC(=Nc3ccccc3)N4C)[C@](C)(O)C[C@@H](C)CN(CCC)[C@H](C)[C@@H](O)[C@](C)(O)[C@@H](CC)OC(=O)[C@@H]2C)C[C@@]1(C)OC (mixture of isomers) [Example A-34, (E/Z)-(2R,3S,4R,5R,8R,10R,11R,12S,13S,14R)-11-(((3aR,4S,6R,7aS)-1,6-dimethyl-2-(phenylimino)hexahydro-2H-pyrano[4,3-d]oxazol-4-yl)oxy)-2-ethyl-3,4,10-trihydroxy-13-(((2R,4R,5S,6S)-5-hydroxy-4-methoxy-4,6-dimethyl-5-((propylamino)methyl)tetrahydro-2H-pyran-2-yl)oxy)-3,5,8,10,12,14-hexamethyl-6-propyl-1-oxa-6-azacyclopentadecan-15-one] | 7 | 6 |
